For data set [1], the system named is lung cancer cell lines. The conditions noted are these: read-out: impact on proliferation of NSCLC and other lung cancer cell lines (none at concentrations as high as).
Data set [2] in a line: Hepatocyte stability, human. The class given is in vitro ADME, humans. Particulars: for hepatocyte CLint at 1 µM: both sexes, human, cryopreserved hepatocytes, read-out: CLint measured with hepatocytes, Human.
Data set [3] is described as follows: in vitro. The class given is in vitro ADME, cyno-monkeys. The conditions noted are these: male, monkey, microsomes, pH 7.4.
The nature of data set [4]: Hepatocyte stability, monkey. The class given is in vitro ADME, cyno-monkeys. The conditions noted are these: male, cryopreserved hepatocytes, read-out: CLint measured with hepatocytes, Monkey.
Data set [5] is described as follows: Hepatocyte stability, mouse. Type of data set: in vitro ADME, CD-1 mice. The conditions noted are these: male, CD-1, mouse, cryopreserved hepatocytes, read-out: CLint measured with hepatocytes, Mouse.
Data set [6] can be described thus: Mouse pharmacokinetic study. The conditions noted are these: male, CD-1, mouse; for half-life / Vd / clearance / Tmax / bioavailability: plasma.
Method: Mouse, rat, dog and monkey pharmacokinetic studies. The studies were performed in accordance with the AAALAC International
administered intravenousely (1 mg/kg in saline, tail vein injection, 2 mL/kg) and orally (5 mg/kg in 0.5%
MC/0.1% Tween 80, oral gavage, 10 mL/kg). Animals were weighed prior to dose administration and had free
access to water and food. At pre-specified time intervals up to 24 hours post-dose, blood samples (approximately
30 μL) were collected from saphenous vein into polypropylene micro centrifuge tubes (containing 2 μL of 1000
IU/ml Heparin-Na as anticoagulant) and stored on wet ice until processed to plasma by centrifugation (2000 rpm
for 5 min at 4C) within 30 min of collection. In the same study, urine was collected for 24 hours. For
intravenousely (2 mg/kg in ethanol:saline (10:90) solution, tail vein injection, 2 mL/kg) and orally (100 mg/kg in
ethanol:saline (20:80) solution, oral gavage, 10 mL/kg). Animals were weighed prior to dose administration and
Data set [7] can be described thus: in vitro. The class given is in vitro ADME, beagle dogs. The conditions noted are these: male, beagle, dog, microsomes, pH 7.4.
Data set [8] addresses T1, SMYD2 (Homo sapiens, UniProt Q9NRG4). Nature of the data set: SMYD2 biochemical methylation assay (3H-SAM, H3,1–29 peptide, flashplate). The arrangement: Full length FLAG-SMYD2 and C-terminally Avi-tagged full length SMYD2 (SMYD2-Avi) were cloned into pFastbac vectors; FLAG (N); His tag with TEV cleavage site (N, cleaved yes); made in house; host or cells: Sf9 insect cells (baculovirus). How it is done:
Full length FLAG-SMYD2 and C-terminally Avi-tagged full length SMYD2 (SMYD2-Avi) were cloned into pFastbac vectors containing an N-terminal His tag with TEV cleavage site. Virus production was performed using standard protocols and the proteins were coexpressed in either Sf9 (SMYD2) or Hi Five (SMYD2-Avi) cells. After harvest by centrifugation, cell pellets for both proteins were resuspended, sonicated, and then centrifuged to remove cell debris. Protein was purified using nickel affinity chromatography before and after TEV cleavage in a similar fashion as SMYD3. […] SMYD2-Avi was biotinylated using His-tagged BirA enzyme after dialysis into a low salt buffer and the BirA was removed with a final nickel affinity column. […] SMYD3 assays were performed as previously described using N-terminally GST-tagged MAP3K2 protein substrate. […] Reactions were conducted at room temperature with enzyme and inhibitor incubated for 30 minutes before initiating the reaction with substrates. Dose-response curves were tested in duplicate in each experiment. […] Quenched reactions were transferred to a streptavidin-coated flashplate (Perkin Elmer) for capture of the biotinylated peptide. After 2 h incubation at room temperature, the flashplate was washed once with 0.1% Tween-20 and read on a Perkin Elmer Topcount NXT plate reader. Substrate apparent KM values were determined by measuring the initial velocities (v0) in duplicate while varying one substrate at fixed concentration of the second substrate. […] Percent inhibition by compound (% inh) was calculated from Eq 3 %inh=(1-([…] the signal in the presence of compound and max and min are the signals for the DMSO and background controls respectively. […] Mechanism of inhibition was determined by measuring the inhibitor IC50 values while varying the concentration of one substrate at a fixed concentration of the second substrate equal to its KM value. The inhibition constant Ki was calculated from fitting the IC50 versus varied substrate concentration data using the Cheng-Prusoff equations for mixed-type and noncompetitive inhibition below. α is the coefficient accounting for differences in inhibitor affinity between binding enzyme forms after versus before substrate binding.

For data set [9], the target named is T1, SMYD2. Nature of the data set: SPR binding assay EPZ033294/SMYD2 (SensiQ). The arrangement: Full length FLAG-SMYD2 and C-terminally Avi-tagged full length SMYD2 (SMYD2-Avi) were cloned into pFastbac vectors; FLAG (N); His tag with TEV cleavage site (N, cleaved yes); made in house; host or cells: Sf9 insect cells (baculovirus). The conditions noted are these: 15°C, 10 µM SAM in running buffer; read-out: dissociation constant (KD) by SPR. How it is done:
The running buffer contained 25 mM Tris-HCl pH 8.0, 150 mM NaCl, 5 mM DTT, 10 µM ZnCl2, 0.05% Tween-20, 10 µM SAM, and 2% DMSO. Avi-tagged biotinylated SMYD2 was immobilized on a neutravidin-coupled BioCap chip up to 6000 RU. Streptavidin on the reference cell was blocked with biocytin. […] Dissociation time was 1000 sec. Analysis of double-referenced data was performed using the 1:1 binding model in QDAT data analysis tool (SensiQ Technologies Inc.).

The test system of data set [10] is Caco-2 cells. Nature of the data set: Caco-2 permeability. For orientation: Passage across Caco-2 layers is used to estimate intestinal permeability.
Method: (§1) Caco-2 permeability. Caco-2 cells (obtained from the ATCC), between passage numbers 40 to 60, were seeded onto Millipore
(§2) Multiscreen plates at 1x10^5 cells/cm2 in Dulbecco's Modified Eagle Medium. Media was changed every two or three days. On
(§3) Day 20, the permeability study was performed using Hanks Balanced Salt Solution (HBSS) pH 7.4 buffer with 25 mM HEPES and
(§4) Incubations were carried out in an atmosphere of 5% CO2 with a relative humidity of
(§5) The monolayers were prepared by rinsing both basolateral and apical surfaces twice with HBSS at 37°C. Cells were
(§6) then incubated with HBSS in both apical and basolateral compartments for 40 min to stabilize physiological parameters. HBSS
(§7) was then removed from the apical or basolateral compartment and replaced with 10 µM test compound dosing solutions (1% final
(§8) DMSO). The pH of supplemented HBSS was 6.5 and 7.5 in the apical and basolateral compartments, respectively. The apical
(§9) compartment inserts were then placed into ‘companion’ plates containing fresh HBSS.
(§10) removed and apical and basolateral samples diluted for analysis by LC-MS/MS. Permeability was assessed in duplicate, on two
(§11) different occasions. On each plate atenolol and propanolol were run as controls. Compounds were quantified by LC-MS/MS analysis using a 5 point calibration curve. The starting concentration (C0) was determined from the dosing solution and
(§12) experimental recovery calculated from C0 and both apical and basolateral compartment concentrations. The permeability coefficient
(§13) (Papp) for each compound was calculated as: (dQ/dt)/(C0xA), where dQ/dt is the rate of permeation of the drug across the cells, C0
(§14) is the donor compartment concentration at time zero and A is the area of the cell monolayer.
(§15) Plasma protein binding. Plasma protein binding was assessed by equilibrium dialysis utilizing the HT-dialysis cell format with a
(§16) cellulose semi-permeable membrane (molecular weight cut-off of 5000 Da). Solutions of test compounds (1 µM, 0.5% final
(§17) DMSO concentration) were prepared in isotonic phosphate buffer (pH 7.4) and 100% pooled male CD-1 mouse plasma. The
(§18) buffer solution was added to one side of the membrane and the plasma solution to the other side. Incubations were performed in
(§19) Haloperidol was incubated in parallel as the control compound for each species. At the end of the incubation time, samples were taken from both sides of the membrane.
(§20) Following protein precipitation, the samples were analyzed by LC-MS/MS using two sets of calibration standards for protein free
(§21) (7 points) and protein containing solutions (6 points). Samples were quantified using standard curves prepared in the equivalent
(§22) matrix. The fraction unbound in plasma (fu) was calculated using the following equation:
(§23) Where, PC = sample concentration in protein containing side, PF = sample concentration in protein free side, and VCorrection =
(§24) correction factor for the volume shift i.e. ratio of the volume of the protein after dialysis to that before dialysis.
Data set [11] is described as follows: Caco-2 permeability. The conditions noted are these: human, 10 µM.
Method: as §1, §2, §3, §4, §5, §6, §7, §8, §9, §10, §11, §12, §13, §14, §15, §16, §17, §18, §19, §20, §21, §22, §23, §24
In data set [12] the target is T1, SMYD2. The data set is described as follows: Intracellular BTF3 monomethylation (BTF3me1) western blot. Type of data set: cell-based. Also on record: endogenous in cells; host or cells: 313 cancer cell lines. Particulars: read-out: Intracellular Methylation IC50. The method, then:
Cells were lysed in 1X RIPA Buffer containing 10% SDS and Halt™ Protease Inhibitor Cocktail (Thermo Fisher Scientific) and incubated on ice for 30 minutes before sonication (Amplitude 20%/10sec) twice. Lysates were spun at […] at 4°C for 10min and normalized for protein concentration by BCA assay (Thermo Fisher Scientific). […] Blots were imaged using the Odyssey Imaging System (LICOR Biosciences). […] BTF3me1 is a custom generated polyclonal antibody, affinity purified from serum of rabbits injected with adjuvant conjugated peptide corresponding to methylated K1 of BTF3 (K(Me)-[…]).
SMYD2 catalyzes the methylation of lysine residues on several proteins, including BTF3 [40].
(In western blotting, separated proteins are transferred to a membrane and probed.)

“And” between values parts separate entries of the source, which are not always exact repeats. Equal entries are not always repeated. Structures can show the parent of a compound that is named as a salt.

Results on two compounds are retold here after publication PMC5983452 (PLoS ONE, 2018).

As a reminder, the microsomal CLint is the rate of metabolic loss divided by the concentration. For orientation: half-life means the time needed for the level to fall by half in the phase considered. For orientation: Vd means the apparent volume that relates the amount in the body to the concentration in plasma or blood. One may read the clearance as the rate of elimination divided by the concentration. By Tmax is commonly meant the time at which the peak concentration occurs. The term Kd denotes the free concentration of one partner at which half of the binding sites on the other are occupied at equilibrium, for simple one-to-one binding. By Papp A→B is commonly meant the apparent permeability from the apical to the basolateral side of a cell layer. Usually Papp B→A stands for how fast a substance crosses the layer from the basolateral side. What is called Ki is the equilibrium dissociation constant of an inhibitor or competing ligand from its target.

T1 sequence (Q9NRG4 whole entry): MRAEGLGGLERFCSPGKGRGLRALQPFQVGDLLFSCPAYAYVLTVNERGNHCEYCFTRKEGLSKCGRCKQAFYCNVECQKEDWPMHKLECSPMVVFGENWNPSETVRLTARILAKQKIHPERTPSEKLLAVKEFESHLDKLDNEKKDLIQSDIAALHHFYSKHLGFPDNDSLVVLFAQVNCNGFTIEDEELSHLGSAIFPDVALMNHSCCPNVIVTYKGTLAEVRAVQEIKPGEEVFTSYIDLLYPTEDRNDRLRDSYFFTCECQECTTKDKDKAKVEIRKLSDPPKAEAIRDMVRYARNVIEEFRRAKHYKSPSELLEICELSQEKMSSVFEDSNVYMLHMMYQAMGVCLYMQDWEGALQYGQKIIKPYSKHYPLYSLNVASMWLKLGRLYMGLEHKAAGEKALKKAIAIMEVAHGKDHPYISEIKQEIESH

For `NC1CCC(S(=O)(=O)N2C3CCC2CC(NC(=O)c2cc(C4CC4)on2)C3)CC1` [EPZ028862, N-((1R,3R,5S)-8-((1r,4R)-4-aminocyclohexylsulfonyl)-8-aza-bicyclo[3.2.1]octan-3-yl)-5-cyclopropylisoxazole-3-carboxamide hydrochloride], the IC50 in [1] is above 25 µM; in [8] (tested in duplicate, read-out: selectivity panel result, SMYD2 (off-target)) it was above 10000 nM. For the same compound, the “CLint measured with hepatocytes, Human” value in [2] (1 µM) was 3.7 µL/min/106 cells and < 3 µL/min/106 cells. The hepatocyte CLint at 1 µM in data set [2] was determined as 4.8 µL/min/1e6 cells; in data set [4], 3.2 µL/min/1e6 cells; in data set [5], 6.6 µL/min/1e6 cells. For the same compound, the microsomal CLint at 1 µM in [3] was 3.2 µL/min/mg; in data set [7], below 3 µL/min/mg. This compound had a half-life in data set [6] of 120 min. The Vd in data set [6] (iv, 1 mg/kg) came out at 9.5 L/kg. This compound also came in with a clearance in data set [6] (iv, 1 mg/kg) of 79.8 mL/min/kg. The time to peak (Tmax) in [6] (po, 5 mg/kg) turned out to be 0.33 h. The bioavailability in data set [6] (po, 5 mg/kg) was around 100%. In addition, the CL renal in data set [6] (urine and plasma, iv, 1 mg/kg) was determined as 23.6 mL/min/kg.

For `O=C(NC1CN(Cc2cnn(Cc3ccc(Cl)cc3)c2)C1)c1cn(C2CC2)nn1` [EPZ033294], in data set [9], the dissociation constant (Kd) came to 5 nM. Also, the hepatocyte CLint at 1 µM came out at 6 µL/min/1e6 cells in data set [2] and 10.9 µL/min/1e6 cells in data set [5]. For the same compound, the “Caco-2 assay outcome in words” value in [10] was “both permeable and an efflux substrate”. Further, the Papp A→B at 120 min, 10 µM in data set [11] (Caco-2, Papp,AB, apical pH 6.5 / basolateral pH 7.5, 120 min) came out at 2.18 ×10⁻⁶ cm/s. The compound further yielded a Papp B→A at 120 min, 10 µM in [11] (Caco-2, Papp,BA, 120 min) of 64.3 ×10⁻⁶ cm/s. For the same compound, the IC50 worked out at 2.9 nM in data set [12]; 2.8 ± 0.4 nM in data set [8] (IC50 at 20 nM SAM, 1 nM SMYD2, 60 nM H3,1-29, 20 nM SAM); 3.2 ± 0.5 nM in [8] (IC50 at 200 nM SAM, 1 nM SMYD2, 60 nM H3,1-29, 200 nM SAM); 3.9 nM in data set [8] (SMYD2, 20 nM SAM, 60 nM H3,1–29 peptide, read-out: Biochemical IC50). For the same compound, in data set [6], the half-life was 192 ± 60 min. Further, in data set [6] (iv, 2 mg/kg), the distribution volume (Vd) came to 4.5 ± 1 L/kg. This compound also came in with a clearance in data set [6] (iv, 2 mg/kg) of 37.4 ± 6.7 mL/min/kg. In addition, in data set [6] (oral, 10 mg/kg), the bioavailability stood at 241 ± 20%. In addition, in data set [6] (po, 10 mg/kg), the Tmax was 1.7 ± 0.6 h. The “mechanism of inhibition with respect to peptide substrate” value in data set [8] (1 nM enzyme, 20 nM SAM, varied H3,1–29) is listed as “noncompetitive”. Besides, in [8] (IC50 compared at two SAM concentrations differing by 10-fold), the “mechanism of inhibition with respect to SAM” value is “either noncompetitive or uncompetitive”. For the same compound, in [8] (varied H3,1–29 peptide, Eq 6, read-out: Ki (noncompetitive versus peptide)), the Ki worked out at 3.9 ± 0.4 nM.
